Measured values: patent US6691045B1, “Method for determining discrete quantitative structure activity relationships” (Chemical Computing Group Inc., priority 1998, dated 2004)

Legend:
[1] = target: T1, Carbonic Anhydrase II receptor (Homo sapiens, UniProt P00918); assay: binding affinity to Carbonic Anhydrase II, from scientific literature; settings: threshold value 5.85
Source text: Each compound is given a numerical value indicating its binding affinity. Beside each drawing in Table 1, is a quantitative experimental assessment of binding affinity.
Otherwise, it would be 1.

[2] = target: T1, Carbonic Anhydrase II receptor; settings: example initial data set; cited from earlier work
estrogen receptor = settings: relative binding affinity scale, estradiol = 100; binding at 0 to 4° C.; presumed ER-α; cited from earlier work

| SMILES | CLASS (activity class, active/inactive) ([1]; structures as SMILES) | CLASS (activity class, active/inactive) ([1]; structures as drawings) | ACTIVITY (quantitative experimental assessment of binding affinity) [2] | log RBA (estrogen receptor) |
| --- | --- | --- | --- | --- |
| CC(=O)Nc1nnc(S(=O)(=O)NC(C)C)s1 | 0 (If the activity value is less than 5.85, the activity class is 0) | 0 (If the activity value is less than 5.85, the activity class is 0) | 5.80 | – |
| CNS(=O)(=O)c1cccc(O)c1 | 1 (Otherwise, it would be 1) | 1 (Otherwise, it would be 1) | 5.92 | – |
| CC/C(=C(/CC)c1ccc(O)cc1)c1ccc(O)cc1 [DES, desthylstilbestrol] | – | – | – | 2.48 |
